Reference: PMC6177235 (Bioorganic & medicinal chemistry, 2018)
Values after ≈ are worked out from the molar mass of the structure shown. “Also recorded” adds a separate entry of the source.

What was measured:
[1] = Cytotoxicity assays, statements on the whole panel of cell lines; conditions: human
[2] = molecular target: NF-κB p65 in HeLa cells (Homo sapiens, UniProt Q04206); assay: Enzyme-based ELISA assay for NF-κB inhibition; format: cell-based
[3] = test system: mitochondrial transmembrane potential (MTP) in HT-29 cells; assay: Mitochondrial transmembrane potential; format: cell-based, human
[4] = test system: HT-29, MDA-MB-231, MDA-MB-435 and OVCAR3 human cancer cell lines; assay: Cytotoxicity assays, statements on the whole panel of cell lines; conditions: all cytotoxicity assays used
[5] = test system: DU145 human prostate cancer cells; conditions: prostate tumor model; cited from earlier work
[6] = test system: OVCAR3 human ovarian cancer cell line; assay: Cytotoxicity assay, OVCAR3 cells; format: cell-based; conditions: OVCAR-3, 72 h, read-out: IC50 toward OVCAR3 cells
[7] = test system: melanoma tumor; conditions: cited from earlier work
[8] = in vitro; conditions: human

Sequence of NF-κB p65 in HeLa cells (Q04206 whole entry): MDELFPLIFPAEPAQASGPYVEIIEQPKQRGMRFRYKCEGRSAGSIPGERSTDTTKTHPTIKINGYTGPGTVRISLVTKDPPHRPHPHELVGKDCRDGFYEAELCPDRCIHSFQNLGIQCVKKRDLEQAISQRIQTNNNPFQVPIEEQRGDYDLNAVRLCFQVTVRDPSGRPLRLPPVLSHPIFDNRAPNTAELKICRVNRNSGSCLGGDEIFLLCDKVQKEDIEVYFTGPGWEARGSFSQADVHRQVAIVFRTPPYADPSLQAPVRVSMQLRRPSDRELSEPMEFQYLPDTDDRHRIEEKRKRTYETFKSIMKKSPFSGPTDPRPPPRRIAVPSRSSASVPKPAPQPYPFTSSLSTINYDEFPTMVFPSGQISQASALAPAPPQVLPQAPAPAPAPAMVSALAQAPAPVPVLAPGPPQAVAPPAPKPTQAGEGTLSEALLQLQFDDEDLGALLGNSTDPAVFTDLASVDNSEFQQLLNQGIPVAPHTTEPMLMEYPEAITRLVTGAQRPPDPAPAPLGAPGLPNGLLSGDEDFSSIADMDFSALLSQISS

C=C(C)[C@@H]1CC[C@]2(C(=O)O)CC[C@]3(C(=O)O)[C@H](CC[C@@H]4[C@@]5(C)CC[C@H](O)C(C)(C)[C@@H]5CC[C@]43C)[C@@H]12 [Compound 4, (+)-melaleucic acid]
IC50 at 72 h [1]: > 10 µM

C=C(C)[C@@H]1CC[C@]2(C(=O)O)CC[C@]3(C)[C@H](CC[C@@H]4[C@@]5(C)C[C@@H](O)[C@H](O)C(C)(C)[C@@H]5CC[C@]43C)[C@@H]12 [Compound 5, (+)-alphitolic acid]
IC50 at 72 h [1]: > 10 µM
activity in the NF-κB inhibition assay (in words) [2]: exhibited activity

CC1(C)CC[C@]2(CO)CC[C@]3(C)C(=CC[C@@H]4[C@@]5(C)CC[C@H](O)C(C)(C)[C@@H]5CC[C@]43C)[C@@H]2C1 [Compound 11, (+)-erythrodiol]
activity in the MTP inhibition assay (in words) [3]: did not show any activities
activity in the cytotoxicity assays (in words) [4]: did not show any activities
activity in the NF-κB inhibition assay (in words) [2]: did not show any activities

C[C@H]1[C@H](C)CC[C@]2(C(=O)O)CC[C@]3(C)C(=CC[C@@H]4[C@@]5(C)CC[C@H](O)C(C)(C)[C@@H]5CC[C@]43C)[C@H]12 [Compound 1, (+)-ursolic acid]
mouse body weight [5]: without significant decrease
IC50 [6]: 12.9 µg/mL (≈ 28.2 µM)

C=C(C)[C@@H]1CC[C@]2(C(=O)OC)CC[C@]3(C(=O)O)[C@H](CC[C@@H]4[C@@]5(C)CC[C@H](O)C(C)(C)[C@@H]5CC[C@]43C)[C@@H]12 [Compound 3, (+)-melaleucic acid 28-methyl ester]
IC50 at 72 h [1]: > 10 µM
activity in the NF-κB inhibition assay (in words) [2]: exhibited activity

C=C(C)[C@@H]1CC[C@]2(C(=O)O)CC[C@]3(C)[C@H](CC[C@@H]4[C@@]5(C)CC[C@H](OC(=O)/C=C/c6ccc(O)c(OC)c6)C(C)(C)[C@@H]5CC[C@]43C)[C@@H]12 [S13, (+)-3β-O−tram,-feruloylbetulinic acid]
activity in the MTP inhibition assay (in words) [3]: active
IC50 at 72 h [1]: > 10 µM
activity in the NF-κB inhibition assay (in words) [2]: exhibited activity

C=C(C)[C@@H]1CC[C@]2(C(=O)O)CC[C@]3(C)[C@H](CC[C@@H]4[C@@]5(C)CC[C@H](O)C(C)(C)[C@@H]5CC[C@]43C)[C@@H]12 [Compound 9, (+)-betulinic acid]
melanoma tumor growth in vivo ([7]; mice): inhibit completely
toxicity observed in mice ([7]; mouse, in vivo): without any obvious toxicity
activity in the MTP inhibition assay (in words) [3]: same potency as 1; also recorded: active
activity in the cytotoxicity assays (in words) [4]: Neither 8 nor 9 showed activity

C=C(C)[C@@H]1CC[C@]2(CO)CC[C@]3(C)[C@H](CC[C@@H]4[C@@]5(C)CC[C@H](O)C(C)(C)[C@@H]5CC[C@]43C)[C@@H]12 [Compound 12, (+)-betulin]
activity in the MTP inhibition assay (in words) [3]: did not show any activities; also recorded: inactive
activity in the cytotoxicity assays (in words) [4]: did not show any activities
IC50 at 72 h [1]: > 10 µM
activity in the NF-κB inhibition assay (in words) [2]: exhibited activity

C=C(C)[C@@H]1CC[C@]2(C(=O)O)CC[C@]3(CO)[C@H](CC[C@@H]4[C@@]5(C)CC[C@H](O)C(C)(C)[C@@H]5CC[C@]43C)[C@@H]12 [Compound 6, (+)-cylicodiscic acid]
IC50 at 72 h [1]: > 10 µM

C=C(C)[C@@H]1CC[C@]2(C(=O)O)CC[C@]3(C)[C@H](CC[C@@H]4[C@@]5(C)C[C@@H](O)[C@H](OC(=O)/C=C/c6ccc(O)cc6)C(C)(C)[C@@H]5CC[C@]43C)[C@@H]12 [Compound 7, (+)-3-O−β-trans-p−coumaroylalphitolic acid]
IC50 at 72 h [8]: > 10 µM
activity in the NF-κB inhibition assay (in words) [2]: exhibited activity

CC1(C)CC[C@]2(C(=O)O)CC[C@]3(C)C(=CC[C@@H]4[C@@]5(C)CC[C@H](O)C(C)(C)[C@@H]5CC[C@]43C)[C@@H]2C1 [Compound 8, (+)-oleanolic acid]
activity in the MTP inhibition assay (in words) [3]: inactive
activity in the cytotoxicity assays (in words) [4]: Neither 8 nor 9 showed activity

C[C@H]1[C@H](C)CC[C@]2(CO)CC[C@]3(C)C(=CC[C@@H]4[C@@]5(C)CC[C@H](O)C(C)(C)[C@@H]5CC[C@]43C)[C@H]12 [Compound 10, (+)-uvaol]
activity in the MTP inhibition assay (in words) [3]: did not show any activities
activity in the cytotoxicity assays (in words) [4]: did not show any activities
activity in the NF-κB inhibition assay (in words) [2]: did not show any activities
